Experimental data as given in patent publication US20230099344A1, “COMPOUNDS AND METHODS FOR THE TARGETED DEGRADATION OF IRAK-4” (Arvinas Operations, Inc., priority 2021, published 2023).

The compounds below were run against T1, IRAK-4 (Homo sapiens, UniProt Q9NWZ3) (assay: IRAK-4 ELISA, PBMC degradation). Conditions: treated overnight.
T1 sequence (Q9NWZ3 1-460): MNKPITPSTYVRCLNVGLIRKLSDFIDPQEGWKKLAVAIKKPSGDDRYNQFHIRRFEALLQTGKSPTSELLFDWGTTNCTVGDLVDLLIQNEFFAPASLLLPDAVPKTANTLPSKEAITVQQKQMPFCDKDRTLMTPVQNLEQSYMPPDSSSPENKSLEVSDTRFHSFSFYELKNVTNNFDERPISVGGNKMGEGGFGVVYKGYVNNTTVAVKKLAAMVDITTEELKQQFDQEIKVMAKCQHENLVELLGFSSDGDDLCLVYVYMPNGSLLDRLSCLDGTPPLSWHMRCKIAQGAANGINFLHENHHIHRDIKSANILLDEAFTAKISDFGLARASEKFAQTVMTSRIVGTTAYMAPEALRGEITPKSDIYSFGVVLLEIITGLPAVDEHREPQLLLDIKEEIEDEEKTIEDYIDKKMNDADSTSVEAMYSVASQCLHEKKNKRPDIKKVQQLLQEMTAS
Format: cell-based
Parameters: endogenous in cells; host or cells: PBMC
Method: Reagents: Human IRAK-4 Matched Antibody Pair Kit (Abcam ab218182) and ELISA Accessory Pack (Abcam ab210905).
Cell Treatment and Lysis:
1. OCI-Ly10: 200,000 cells are seeded at 1×10^6/ml in 96-well U-bottom plates 200 ul per well, treated with compound the same day. Incubate overnight. 2. PBMC: 800,000 cells are seeded at 2×10^6/ml in 96-well U-bottom deep-well plates, 400 ul per well, treated with compound the same day. Incubate overnight.
Cell lysate is collected and analyzed by ELISA for IRAK-4 levels.

SMILES	DC50 [nM]	Dmax [%]	PBMC DC90
CC(C)Oc1cc2nn(C3CCN(CCN4CCN(c5ccc6c(c5)C(=O)N(C5CCC(=O)NC5=O)C6=O)CC4)CC3)cc2cc1NC(=O)c1cnn2cccnc12 (stereo not drawn) [Example 137]	< 1	≥ 90	A (A represents a DC90 value <10.0 nM)
CC(C)Oc1cc2nn(C3CCN(CC4CCN(c5ccc6c(c5)C(=O)N(C5CCC(=O)NC5=O)C6=O)CC4)CC3)cc2cc1NC(=O)c1cnn2cccnc12 (stereo not drawn) [Example 138]	< 1	≥ 90	A (A represents a DC90 value <10.0 nM)
CC(C)Oc1cc2nn(C3CCN(CCC4(F)CN(c5ccc6c(c5)C(=O)N(C5CCC(=O)NC5=O)C6=O)C4)CC3)cc2cc1NC(=O)c1cnn2cccnc12 (stereo not drawn) [Example 139]	< 1	80 to 90	A (A represents a DC90 value <10.0 nM)
CC(C)Oc1cc2nn(C3CCN(CC(F)(F)C4CN(c5ccc6c(c5)C(=O)N(C5CCC(=O)NC5=O)C6=O)C4)CC3)cc2cc1NC(=O)c1cnn2cccnc12 (stereo not drawn) [Example 147]	1 to 5	≥ 90	B (B represents a DC90 value ≥10.0 nM and <25.0 nM)
O=C1CCC(N2C(=O)c3ccc(N4CCC(CN5CCC(n6cc7cc(NC(=O)c8cnn9cccnc89)c(OCC(F)F)cc7n6)CC5)CC4)cc3C2=O)C(=O)N1 (stereo not drawn) [Example 148]	< 1	80 to 90	A (A represents a DC90 value <10.0 nM)
CN1CC(Oc2cc3nn(C4CCN(CC5CN(c6ccc7c(c6)C(=O)N(C6CCC(=O)NC6=O)C7=O)C5)CC4)cc3cc2NC(=O)c2cnn3cccnc23)C1 (stereo not drawn) [Example 151]	5 to 10	70 to 80	D (D represents a DC90 value ≥50 nM)
CN1CC(Oc2cc3nn(C4CCN(CC5CCN(c6ccc7c(c6)C(=O)N(C6CCC(=O)NC6=O)C7=O)CC5)CC4)cc3cc2NC(=O)c2cnn3cccnc23)C1 (stereo not drawn) [Example 152]	≥ 10	< 70	D (D represents a DC90 value ≥50 nM)
O=C1CCC(N2C(=O)c3ccc(N4CC(O)(CN5CCC(n6cc7cc(NC(=O)c8cnn9cccnc89)c(OCC8CC8)cc7n6)CC5)C4)cc3C2=O)C(=O)N1 (stereo not drawn) [Example 169]	< 1	≥ 90	122 nM
O=C1CCC(N2C(=O)c3ccc(N4CCC(N5CCC(n6cc7cc(NC(=O)c8cnn9cccnc89)c(OCC8CC8)cc7n6)CC5)CC4)cc3C2=O)C(=O)N1 (stereo not drawn) [Example 170]	< 1	≥ 90	A (A represents a DC90 value <10.0 nM)
O=C1CCC(N2C(=O)c3ccc(N4CCC[C@H](CN5CCC(n6cc7cc(NC(=O)c8cnn9cccnc89)c(OCC8CC8)cc7n6)CC5)C4)cc3C2=O)C(=O)N1 (stereo partly drawn) [Example 174]	1 to 5	≥ 90	B (B represents a DC90 value ≥10.0 nM and <25.0 nM)
O=C1CCC(N2C(=O)c3ccc(N4CCC[C@@H](CN5CCC(n6cc7cc(NC(=O)c8cnn9cccnc89)c(OCC8CC8)cc7n6)CC5)C4)cc3C2=O)C(=O)N1 (stereo partly drawn) [Example 175]	1 to 5	≥ 90	B (B represents a DC90 value ≥10.0 nM and <25.0 nM)
O=C1CCC(N2C(=O)c3ccc(N4CCO[C@@H](CN5CCC(n6cc7cc(NC(=O)c8cnn9cccnc89)c(OCC8CC8)cc7n6)CC5)C4)cc3C2=O)C(=O)N1 (stereo partly drawn) [Example 176]	< 1	≥ 90	A (A represents a DC90 value <10.0 nM)
O=C1CCC(N2C(=O)c3ccc(N4CCO[C@H](CN5CCC(n6cc7cc(NC(=O)c8cnn9cccnc89)c(OCC8CC8)cc7n6)CC5)C4)cc3C2=O)C(=O)N1 (stereo partly drawn) [Example 177]	< 1	≥ 90	A (A represents a DC90 value <10.0 nM)
O=C1CCC(N2C(=O)c3ccc(N4CC(O[C@H]5CC[C@H](n6cc7cc(NC(=O)c8cnn9cccnc89)c(OCC8CC8)cc7n6)CC5)C4)cc3C2=O)C(=O)N1 (stereo partly drawn) [Example 183]	1 to 5	≥ 90	B (B represents a DC90 value ≥10.0 nM and <25.0 nM)
